In US20130053245A1, “Method and Substance for Promoting Plant Growth” (World Grow International Corp., priority 2009, published 2013):

System: baby corn seeds
Experiment: root length developed on baby corn seeds after treatment with homeopathic growth stimulant
Format: in vivo
Method: The length of roots that developed on the baby corn seeds, after treatment of the seeds with various concentrations of homeopathic growth stimulant, was measured. […] This critical transition indicates a fundamental difference in the chemical structure of the resulting plant enhancement substance by molecular cloistering. The criticality and creation of a chemically different substance brought about by dilution is indicated by the synergy of combining the resulting dilution medium and dissolved homeopathic growth stimulant with a nutrient source such as a fertilizer. This synergy is evidenced by the multiplication of growth increase in target plants resulting from the combination. […] However, treatment of a target plant using a combination of dilution medium and dissolved homeopathic growth stimulant along with a nutrient source increases plant growth tenfold.

O.O.O.O.O.O=S(=O)([O-])[O-].[Cu+2] [CuSO4, copper sulfate pentahydrate (CuSO4.5H2O)]
root development (high concentration): arrests root development | root growth (length of roots) (higher concentrations of CuSO4 in the homeopathic growth stimulant): arrest root growth | root growth (homeopathic concentration (3-12X potency)): acts as a root growth enhancer | root growth (length of roots) (lower concentrations of CuSO4, below the homeopathic barrier or threshold concentration): enhance root growth
